{"source": "patent US11242541B2", "about": "“Skeletal muscle cells and method for inducing same” (KYOTO PREFECTURAL PUBLIC UNIVERSITY CORPORATION, priority 2016, dated 2022)", "key": {"human fibroblasts [1]": {"tested_on": "human fibroblasts", "assay": "Real-time RT-PCR of Myogenin, CKM, Dystrophin mRNA with ERK5 pathway inhibitor (Example 13)", "format": "cell-based", "conditions": "ML-infected cells with inhibitor, 14 days after infection", "protocol": "(§1) In the same manner as in Example 12, human fibroblasts were infected with both a retrovirus vector incorporating MyoD1 gene and a retrovirus vector incorporating L-myc gene (ML). As a control, cells free of infection with a retrovirus vector were also prepared (−). A ERK5 pathway inhibitor, XMDB-92, was added at the indicated concentration to some groups. These were cultured in a myoblast differentiation medium in the same manner as in Example 12. 14 days after infection, nuclear staining was performed in the same manner as in Example 3. Images taken using a fluorescence microscope (Keyence BZ710) are shown (FIG. 13A, upper panel). In addition, the percentages of cells having 4 or more nuclei, cells having 2-3 nuclei and cells having one nucleus were calculated (FIG. 13A, lower panel).\nIn addition, 14 days after infection, RNA was extracted from the cells. As a control, RNA was also extracted from the primary human skeletal muscle cells (pSKMs). mRNAs of Myogenin, CKM, Dystrophin were quantified by real time RT-PCR."}, "human fibroblasts [2]": {"tested_on": "human fibroblasts", "assay": "Multinucleation of ML-infected cells with or without ERK5 pathway inhibitor (Example 13)", "format": "cell-based", "conditions": "addition of 2-5 μM inhibitor, 14 days after infection", "protocol": "as §1"}}}
{"molecule": "CCOc1cc(N2CCC(O)CC2)ccc1Nc1ncc2c(n1)N(C)c1ccccc1C(=O)N2C", "note": "[XMD8-92]", "values": [{"measurement": "induction of expression of Myogenin, CKM, Dystrophin mRNA by ML gene transfer", "setting": "human fibroblasts [1]", "value": "not suppressed"}, {"measurement": "percentage of cells having 2-3 nuclei", "setting": "human fibroblasts [2]", "value": "21-23%"}, {"measurement": "percentage of cells having not less than 4 nuclei", "setting": "human fibroblasts [2]", "value": "10-12%"}]}
